Literature values as cited in patent US20020098247A1, “Methods and compositions for the improvement of insulin sensitivity, reduction of hyperglycemia, and reduction of hypercholesterolemia with chromium complexes and alpha lipoic acid” (priority 2000, published 2002).

Experiments:
[1] = test system: isolated vasculature of diabetic rats
[2] = test system: Patients with Type II diabetes with symptomatic polyneuropathy; settings: intravenous, three weeks
[3] = test system: patients with Type I and Type II diabetes
[4] = test system: patients with Type II diabetes; settings: 600 mg intravenously three weeks, then 6 months tid oral
[5] = test system: patients with Type II diabetes; settings: 600 mg tid orally, three weeks
[6] = rats, oral administration of CrCl3 with the NSAID

Row | Structure (SMILES) | prevention of the deficit in acetylcholine-induced relaxation in isolated vasculature [1] [%] | frequency of adverse effects ([2]; 1,200 mg dose group vs other groups) | decrease of Total Symptom Score (TSS) in the feet ([2]; two higher doses (600, 1,200 mg per day)) | sensory nerve and tibial nerve conduction velocities ([3]; 600 or 1,200 mg per day, intravenous five days then oral two years) | Neuropathy Disability Score values ([3]; 600 or 1,200 mg per day, two years) | incidence or severity of side effects vs placebo ([3]; two-year study) | neuropathy as evidenced by the TSS vs placebo [4] | side effects between groups [4] | TSS in the feet and NDS scores [5] | side effects vs placebo [5] | chromium absorption [6]
1 | O=C(O)CCCCC1CCSS1 (stereo not drawn) [alpha-lipoic acid] | 94 | slightly greater rate of gastrointestinal side effects | approximately 60% | improvements | not significantly affected | no significant differences | significantly lessened | no significant differences | improvements | No significant differences | –
2 | CC(=O)Oc1ccccc1C(=O)O [aspirin, acetylsalicylic acid] | – | – | – | – | – | – | – | – | – | – | facilitated
